Measured values reported in patent US20230087118A1, “IMIDAZO[1,2-a][sequence] DERIVATIVES AND THEIR USE IN THE TREATMENT OF DISEASE” (priority 2019, published 2023).
Counter-ions that a name gives are not always drawn. Like-named read-outs stand apart in the source and are kept apart here.

Molecular target: T1, IRAK4 (Homo sapiens, UniProt Q9NWZ3)
T1 sequence (Q9NWZ3 1-460): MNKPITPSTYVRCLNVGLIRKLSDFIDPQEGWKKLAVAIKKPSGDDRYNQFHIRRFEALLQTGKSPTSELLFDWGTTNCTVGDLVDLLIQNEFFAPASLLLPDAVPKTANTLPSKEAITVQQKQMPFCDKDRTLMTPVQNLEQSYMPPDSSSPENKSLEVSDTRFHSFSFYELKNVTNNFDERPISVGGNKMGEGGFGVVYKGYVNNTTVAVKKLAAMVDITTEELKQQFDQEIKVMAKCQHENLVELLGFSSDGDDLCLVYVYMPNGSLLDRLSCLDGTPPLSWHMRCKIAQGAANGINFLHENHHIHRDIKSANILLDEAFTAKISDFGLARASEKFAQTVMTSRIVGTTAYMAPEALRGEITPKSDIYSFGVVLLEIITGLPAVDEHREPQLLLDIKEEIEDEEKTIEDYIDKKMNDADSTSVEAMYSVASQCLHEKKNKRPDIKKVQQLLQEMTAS
Test: biochemical

[1] = IRAK4 Biochemical Assay (1 mM ATP, 2 h) IC50 (μM), 1 mM ATP, 2 h, 100 pM IRAK4

Row | SMILES | IC50 [µM] | IC50 [1] [µM]
1 | CC(C)Oc1cc2nc(C34CCC(C)(C3)OC4)cn2cc1C(=O)Nc1ccn(C)n1 (centres unmarked) [Example 414, 7-Isopropoxy-N-(1-methyl-1H-pyrazol-3-yl)-2-(1-methyl-2-oxabicyclo[2.2.1]heptan-4-yl)imidazo[1,2-a]pyridine-6-carboxamide] | 0.0033 | 
2 | CC(C)Oc1cc(C(=O)Nc2cccc(C(F)F)n2)cn2cc(C3CCCOC3)nc12 (centres unmarked) [Example 394, N-(6-(difluoromethyl)pyridin-2-yl)-8-isopropoxy-2-(tetrahydro-2H-pyran-3-yl)imidazo[1,2-a]pyridine-6-carboxamide] | 0.0057 | 
3 | CC(C)Oc1cc2nc(C34CCC(C)(C3)OC4)cn2cc1C(=O)Nc1cccn(C)c1=O (centres unmarked) [Example 505, 7-Isopropoxy-N-(1-methyl-2-oxo-1,2-dihydropyridin-3-yl)-2-(1-methyl-2-oxabicyclo[2.2.1]heptan-4-yl)imidazo[1,2-a]pyridine-6-carboxamide] | 0.0005 | 
4 | CC(C)Oc1c(C(=O)Nc2cccc(C(F)F)n2)cn2cc(C34COC(C)(C3)C4)nc2c1F [Example 217] | 0.0017 | 
5 | CC12CCC(c3cn4cc(C(=O)Nc5ccn(CC6CC6)n5)c(OC5CCC5)cc4n3)(CO1)C2 (centres unmarked) [Example 534, 7-Cyclobutoxy-N-(1-(cyclopropylmethyl)-1H-pyrazol-3-yl)-2-(1-methyl-2-oxabicyclo[2.2.1]heptan-4-yl)imidazo[1,2-a]pyridine-6-carboxamide] | 0.0135 | 
6 | COc1cc2nc(C34CC(F)(C3)C4)cn2cc1C(=O)Nc1ccccn1 [Example 3] |  | 0.217
7 | CC(C)Oc1cc2nc(C3COCCO3)cn2cc1C(=O)Nc1cccc(C(F)F)n1 (centres unmarked) [Example 330, N-(6-(difluoromethyl)pyridin-2-yl)-2-(1,4-dioxan-2-yl)-7-isopropoxy-imidazo[1,2-a]pyridine-6-carboxamide] | 0.0002 | 
8 | COc1ccn2ncc(NC(=O)c3cn4cc(C56COC(C)(C5)C6)nc4cc3OC(C)C)c2n1 [Example 300, 7-Isopropoxy-N-(5-methoxypyrazolo[1,5-a]pyrimidin-3-yl)-2-(1-methyl-2-oxabicyclo[2.1.1]hexan-4-yl)imidazo[1,2-a]pyridine-6-carboxamide] | 0.0022 | 
9 | COc1cccc(NC(=O)c2cn3cc(C45COC(C)(C4)C5)nc3cc2OC2CCC2)n1 [Example 529, 7-Cyclobutoxy-N-(6-methoxypyridin-2-yl)-2-(1-methyl-2-oxabicyclo[2.1.1]hexan-4-yl)imidazo[1,2-a]pyridine-6-carboxamide] | 0.0003 | 
10 | Cc1cnc2c(NC(=O)c3cn4cc(C56COC(C)(C5)C6)nc4cc3OC3CCCC3)cnn2c1 [Example 568, 7-(Cyclopentyloxy)-2-(1-methyl-2-oxabicyclo[2.1.1]hexan-4-yl)-N-(6-methylpyrazolo[1,5-a]pyrimidin-3-yl)imidazo[1,2-a]pyridine-6-carboxamide] | 0.0002 | 
11 | CCOc1nc(C(=O)Nc2cccn(C)c2=O)cn2cc(C34COC(C)(C3)C4)nc12 [Example 500, 8-Ethoxy-N-(1-methyl-2-oxo-1,2-dihydropyridin-3-yl)-2-(1-methyl-2-oxabicyclo[2.1.1]hexan-4-yl)imidazo[1,2-a]pyrazine-6-carboxamide] | 0.0021 | 
12 | CC(C)Oc1nc2nc(C34COC(C)(C3)C4)cn2cc1C(=O)Nc1snc2cccnc12 [Example 376, 7-Isopropoxy-N-(isothiazolo[4,3-b]pyridin-3-yl)-2-(1-methyl-2-oxabicyclo[2.1.1]hexan-4-yl)imidazo[1,2-a]pyrimidine-6-carboxamide] | 0.0018 | 
13 | COc1nc(C(=O)Nc2cccc3c2CCC3)cn2cc(C3CCOCC3)nc12 [Example 210] | 0.302 | 
14 | CC12CC(c3cn4cc(C(=O)Nc5cccn(C(F)F)c5=O)c(OCCF)cc4n3)(CO1)C2 [Example 438, N-(1-(difluoromethyl)-2-oxo-1,2-dihydropyridin-3-yl)-7-(2-fluoroethoxy)-2-(1-methyl-2-oxabicyclo[2.1.1]hexan-4-yl)imidazo[1,2-a]pyridine-6-carboxamide] | 0.0015 | 
15 | CC(C)Oc1cc2nc(C34COC(C)(C3)C4)cn2cc1C(=O)Nc1ccno1 [Example 317, 7-Isopropoxy-N-(isoxazol-5-yl)-2-(1-methyl-2-oxabicyclo[2.1.1]hexan-4-yl)imidazo[1,2-a]pyridine-6-carboxamide trifluoroacetate] |  | 0.022
16 | Cc1cnc2c(NC(=O)c3cn4cc(C56CCC(C)(CC5)CO6)nc4nc3OC(C)C)cnn2c1 [Example 567, 7-Isopropoxy-2-(4-methyl-2-oxabicyclo[2.2.2]octan-1-yl)-N-(6-methylpyrazolo[1,5-a]pyrimidin-3-yl)imidazo[1,2-a]pyrimidine-6-carboxamide] | 0.0002 | 
17 | CC1(COc2cc3nc(C45COC(C)(C4)C5)cn3cc2C(=O)Nc2cccn(C(F)F)c2=O)CCOC1 (centres unmarked) [Example 444, N-(1-(difluoromethyl)-2-oxo-1,2-dihydropyridin-3-yl)-2-(1-methyl-2-oxabicyclo[2.1.1]hexan-4-yl)-7-((3-methyltetrahydrofuran-3-yl)methoxy)imidazo[1,2-a]pyridine-6-carboxamide] |  | 0.0042
18 | COc1cccc(NC(=O)c2cn3cc(C45COC(CF)(C4)C5)nc3cc2OC)n1 [Example 7] |  | 0.0166
19 | CCOc1nc(C(=O)Nc2cc(F)cnc2OC)cn2cc(C3CCCOC3)nc12 (centres unmarked) [Example 271, 8-Ethoxy-N-(5-fluoro-2-methoxypyridin-3-yl)-2-(tetrahydro-2H-pyran-3-yl)imidazo[1,2-a]pyrazine-6-carboxamide] | 0.0073 | 
20 | COc1cccc(NC(=O)c2cn3cc(C45CCC(C)(C4)OC5)nc3cc2OC)n1 (centres unmarked) [Example 27] |  | 0.0198
21 | CC12CCC(c3cn4cc(C(=O)Nc5cccn(C(F)F)c5=O)c(OC5CC5)cc4n3)(CO1)C2 (centres unmarked) [Example 553] | 0.0015 | 
22 | Cc1ccn2ncc(NC(=O)c3cn4cc(C56COC(C)(C5)C6)nc4nc3OC(C)C)c2n1 [Example 374, 7-Isopropoxy-2-(1-methyl-2-oxabicyclo[2.1.1]hexan-4-yl)-N-(5-methyl-pyrazolo[1,5-a]pyrimidin-3-yl)imidazo[1,2-a]pyrimidine-6-carboxamide] | 0.0014 | 

Now from value to molecule:

Row | IC50 [µM] | IC50 [1] [µM] | SMILES
23 | 0.0002 |  | CC(C)Oc1cc2nc(C34COC(C)(C3)C4)cn2cc1C(=O)Nc1cnn2ccc(Cl)nc12 [Example 264, N-(5-chloropyrazolo[1,5-a]pyrimidin-3-yl)-7-isopropoxy-2-(1-methyl-2-oxabicyclo[2.1.1]hexan-4-yl)imidazo[1,2-a]pyridine-6-carboxamide]
24 | 0.0006 |  | CC(C)Oc1cc2nc([C@@]34CC[C@@H](C3)OC4)cn2cc1C(=O)Nc1cnn2cccnc12 (single isomer, unassigned) [Example 582]
25 | 0.002 |  | Cn1ccc(NC(=O)c2cn3cc(C45COC(C)(C4)C5)nc3cc2OC2CC3(CC3)C2)n1 [Example 550]
26 | 0.0037 |  | Cn1ccc(NC(=O)c2cn3cc([C@]45CC[C@](C)(C4)OC5)nc3nc2OC2CCCC2)n1 (single isomer, unassigned) [Example 636]
27 | 0.0008 |  | CC12CCC(c3cn4cc(C(=O)Nc5cnn6cccnc56)c(OC5CC5)cc4n3)(CO1)C2 (centres unmarked) [Example 554]
28 | 0.0023 |  | CC(C)Oc1cc2nc([C@@]34CC[C@@](C)(C3)OC4)cn2cc1C(=O)Nc1ccn(C)n1 (single isomer, unassigned) [Example 606]
29 | 0.014 |  | CCOc1nc(C(=O)Nc2cc(F)cn(C)c2=O)cn2cc([C@H]3CCCOC3)nc12 (single isomer, unassigned) [Example 597]
30 | 0.114 |  | COc1cc2nc(C3CCOCC3)cn2cc1C(=O)Nc1ccc(F)cc1OC(C)C [Example 109]
31 | 0.0004 |  | CCC(C)Oc1nc2nc(C34COC(C)(C3)C4)cn2cc1C(=O)Nc1cnn2cc(C)cnc12 (single isomer, unassigned) [Example 643]
32 |  | 0.0014 | Cc1cnc2c(NC(=O)c3cn4cc(C56CC(C)(C5)OC6(C)C)nc4nc3OC(C)C)cnn2c1 [Example 311, 7-Isopropoxy-N-(6-methylpyrazolo[1,5-a]pyrimidin-3-yl)-2-(1,3,3-trimethyl-2-oxabicyclo[2.1.1]hexan-4-yl)imidazo[1,2-a]pyrimidine-6-carboxamide trifluoroacetate]
33 | 0.0002 |  | CC(C)Oc1nc2nc([C@@]34CC[C@@](C)(C3)OC4)cn2cc1C(=O)Nc1cccc(C(F)F)n1 (single isomer, unassigned) [Example 576]
34 | 0.002 |  | CC(C)Oc1cc2nc(C3COCCO3)cn2cc1C(=O)Nc1cnn2cccnc12 (centres unmarked) [Example 331, 2-(1,4-Dioxan-2-yl)-7-isopropoxy-N-(pyrazolo[1,5-a]pyrimidin-3-yl)imidazo[1,2-a]pyridine-6-carboxamide]
35 | 0.0025 |  | COc1ncccc1NC(=O)c1cn2cc(C3CC3)nc2nc1OC(C)C [Example 283, 2-Cyclopropyl-7-isopropoxy-N-(2-methoxypyridin-3-yl)imidazo[1,2-a]pyrimidine-6-carboxamide]
36 | 0.119 |  | O=C(Nc1cccc(C(F)(F)F)n1)c1cn2cc(C3CCOCC3)nc2cn1 [Example 82]
37 |  | 0.0002 | CC(C)Oc1nc2nc(C34COC(C)(C3)C4)cn2cc1C(=O)Nc1csc2nccnc12 [Example 380, 7-Isopropoxy-2-(1-methyl-2-oxabicyclo[2.1.1]hexan-4-yl)-N-(thieno[2,3-b]pyrazin-7-yl)imidazo[1,2-a]pyrimidine-6-carboxamide trifluoroacetate]
38 | 0.0041 |  | COc1cc2nc(C3CCOCC3)cn2cc1C(=O)Nc1cccc2ccnn12 [Example 57, 7-Methoxy-N-(pyrazolo[1,5-a]pyridin-7-yl)-2-(tetrahydro-2H-pyran-4-yl)imidazo[1,2-a]pyridine-6-carboxamide]
